Key:
Details in all cases: Compound concentration 1000.0 nM
[1] = molecular target: Phosphatidylinositol 4-phosphate 5-kinase type-1 alpha (Homo sapiens) (UniProt Q99755)
[2] = molecular target: Serine/threonine-protein kinase N2 (Homo sapiens) (UniProt Q16513)
[3] = molecular target: BMP-2-inducible protein kinase (Homo sapiens) (UniProt Q9NSY1)
[4] = molecular target: Rho-associated protein kinase 2 (Homo sapiens) (UniProt O75116)
[5] = molecular target: Serine/threonine-protein kinase Nek10 (Homo sapiens) (UniProt Q6ZWH5)
Chain of Serine/threonine-protein kinase Nek10 (Homo sapiens) (Q6ZWH5 whole entry): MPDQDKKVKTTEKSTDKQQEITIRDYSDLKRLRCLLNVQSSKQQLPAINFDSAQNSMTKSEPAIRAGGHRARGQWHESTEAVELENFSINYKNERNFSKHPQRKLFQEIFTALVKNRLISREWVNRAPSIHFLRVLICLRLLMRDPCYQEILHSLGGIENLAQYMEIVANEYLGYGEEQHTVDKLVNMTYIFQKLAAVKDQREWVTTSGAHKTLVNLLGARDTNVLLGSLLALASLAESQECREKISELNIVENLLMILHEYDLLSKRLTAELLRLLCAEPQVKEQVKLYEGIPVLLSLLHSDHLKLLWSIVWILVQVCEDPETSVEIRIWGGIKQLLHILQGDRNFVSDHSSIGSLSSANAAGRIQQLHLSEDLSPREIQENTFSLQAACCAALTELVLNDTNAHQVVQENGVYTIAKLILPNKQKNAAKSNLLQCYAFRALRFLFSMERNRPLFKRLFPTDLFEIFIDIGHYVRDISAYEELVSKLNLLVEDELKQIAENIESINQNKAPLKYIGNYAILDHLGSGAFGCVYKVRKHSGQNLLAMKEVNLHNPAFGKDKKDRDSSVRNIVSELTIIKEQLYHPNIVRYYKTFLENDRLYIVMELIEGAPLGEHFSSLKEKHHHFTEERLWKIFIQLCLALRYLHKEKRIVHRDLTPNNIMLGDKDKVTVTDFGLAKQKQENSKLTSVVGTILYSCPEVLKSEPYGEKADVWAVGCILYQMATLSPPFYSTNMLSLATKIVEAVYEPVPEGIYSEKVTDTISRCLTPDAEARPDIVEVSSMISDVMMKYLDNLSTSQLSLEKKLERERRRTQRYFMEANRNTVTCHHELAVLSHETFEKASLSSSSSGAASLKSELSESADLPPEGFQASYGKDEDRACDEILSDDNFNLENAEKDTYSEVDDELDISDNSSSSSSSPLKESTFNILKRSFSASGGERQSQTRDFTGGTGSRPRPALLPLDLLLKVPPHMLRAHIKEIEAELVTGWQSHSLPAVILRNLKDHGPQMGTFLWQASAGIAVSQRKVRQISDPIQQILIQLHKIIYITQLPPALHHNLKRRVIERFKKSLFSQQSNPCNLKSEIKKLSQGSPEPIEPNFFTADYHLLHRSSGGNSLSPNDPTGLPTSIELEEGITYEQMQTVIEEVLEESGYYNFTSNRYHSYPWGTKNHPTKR

[6] = molecular target: T1, Ephrin type-B receptor 1 (Homo sapiens) (UniProt P54762)
T1 sequence (whole entry): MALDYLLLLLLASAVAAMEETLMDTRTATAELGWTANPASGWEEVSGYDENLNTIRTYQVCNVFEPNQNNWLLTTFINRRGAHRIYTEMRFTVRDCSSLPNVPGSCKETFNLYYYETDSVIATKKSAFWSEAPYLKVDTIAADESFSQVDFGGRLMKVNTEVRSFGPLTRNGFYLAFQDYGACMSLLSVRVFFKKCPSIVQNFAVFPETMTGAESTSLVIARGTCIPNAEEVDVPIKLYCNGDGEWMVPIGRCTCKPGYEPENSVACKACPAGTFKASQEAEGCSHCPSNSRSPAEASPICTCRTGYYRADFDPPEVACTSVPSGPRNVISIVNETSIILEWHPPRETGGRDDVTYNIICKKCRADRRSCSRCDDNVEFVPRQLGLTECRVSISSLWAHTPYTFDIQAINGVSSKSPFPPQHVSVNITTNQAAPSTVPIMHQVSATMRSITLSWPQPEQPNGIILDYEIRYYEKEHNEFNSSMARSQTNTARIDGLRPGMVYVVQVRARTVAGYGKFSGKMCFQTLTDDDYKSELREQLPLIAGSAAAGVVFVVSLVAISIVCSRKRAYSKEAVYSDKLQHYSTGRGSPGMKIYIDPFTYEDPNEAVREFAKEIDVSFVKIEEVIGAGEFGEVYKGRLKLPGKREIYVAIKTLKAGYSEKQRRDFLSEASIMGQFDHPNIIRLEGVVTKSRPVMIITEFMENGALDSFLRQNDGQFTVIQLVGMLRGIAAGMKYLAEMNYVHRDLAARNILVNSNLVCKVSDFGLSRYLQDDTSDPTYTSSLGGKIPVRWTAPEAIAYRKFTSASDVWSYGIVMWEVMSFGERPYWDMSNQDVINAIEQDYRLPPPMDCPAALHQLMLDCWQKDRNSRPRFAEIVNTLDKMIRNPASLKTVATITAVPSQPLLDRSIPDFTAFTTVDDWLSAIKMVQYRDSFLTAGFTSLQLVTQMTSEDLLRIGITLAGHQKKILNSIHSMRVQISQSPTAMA

[7] = molecular target: Fibroblast growth factor receptor 2 (Homo sapiens) (UniProt P21802)
[8] = molecular target: Serine/threonine-protein kinase PLK1 (Homo sapiens) (UniProt P53350)
Chain of Serine/threonine-protein kinase PLK1 (Homo sapiens) (P53350 whole entry): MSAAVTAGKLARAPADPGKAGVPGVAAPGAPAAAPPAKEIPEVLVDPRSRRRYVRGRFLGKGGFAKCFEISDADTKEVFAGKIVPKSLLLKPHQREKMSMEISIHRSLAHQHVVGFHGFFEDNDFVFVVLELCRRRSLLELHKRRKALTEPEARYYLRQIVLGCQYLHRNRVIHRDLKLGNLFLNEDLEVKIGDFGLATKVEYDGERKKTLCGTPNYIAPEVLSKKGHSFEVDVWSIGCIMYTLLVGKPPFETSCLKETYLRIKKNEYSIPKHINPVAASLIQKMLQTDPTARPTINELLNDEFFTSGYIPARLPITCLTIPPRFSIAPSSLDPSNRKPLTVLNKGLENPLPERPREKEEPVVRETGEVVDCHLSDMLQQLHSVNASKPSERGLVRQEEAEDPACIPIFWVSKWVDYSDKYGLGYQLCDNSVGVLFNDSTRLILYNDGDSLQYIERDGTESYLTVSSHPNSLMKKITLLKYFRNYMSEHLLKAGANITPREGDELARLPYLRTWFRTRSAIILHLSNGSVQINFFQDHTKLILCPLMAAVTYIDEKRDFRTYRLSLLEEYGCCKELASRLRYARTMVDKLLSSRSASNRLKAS

[9] = test system: Serine/threonine-protein kinase B-raf (Homo sapiens), P15056 [V600E]
[10] = molecular target: Calcium/calmodulin-dependent protein kinase type II subunit alpha (Homo sapiens) (UniProt Q9UQM7)
[11] = molecular target: Wee1-like protein kinase (Homo sapiens) (UniProt P30291)
[12] = molecular target: Ribosomal protein S6 kinase alpha-3 (Homo sapiens) (UniProt P51812)
Chain of Ribosomal protein S6 kinase alpha-3 (Homo sapiens) (P51812 whole entry): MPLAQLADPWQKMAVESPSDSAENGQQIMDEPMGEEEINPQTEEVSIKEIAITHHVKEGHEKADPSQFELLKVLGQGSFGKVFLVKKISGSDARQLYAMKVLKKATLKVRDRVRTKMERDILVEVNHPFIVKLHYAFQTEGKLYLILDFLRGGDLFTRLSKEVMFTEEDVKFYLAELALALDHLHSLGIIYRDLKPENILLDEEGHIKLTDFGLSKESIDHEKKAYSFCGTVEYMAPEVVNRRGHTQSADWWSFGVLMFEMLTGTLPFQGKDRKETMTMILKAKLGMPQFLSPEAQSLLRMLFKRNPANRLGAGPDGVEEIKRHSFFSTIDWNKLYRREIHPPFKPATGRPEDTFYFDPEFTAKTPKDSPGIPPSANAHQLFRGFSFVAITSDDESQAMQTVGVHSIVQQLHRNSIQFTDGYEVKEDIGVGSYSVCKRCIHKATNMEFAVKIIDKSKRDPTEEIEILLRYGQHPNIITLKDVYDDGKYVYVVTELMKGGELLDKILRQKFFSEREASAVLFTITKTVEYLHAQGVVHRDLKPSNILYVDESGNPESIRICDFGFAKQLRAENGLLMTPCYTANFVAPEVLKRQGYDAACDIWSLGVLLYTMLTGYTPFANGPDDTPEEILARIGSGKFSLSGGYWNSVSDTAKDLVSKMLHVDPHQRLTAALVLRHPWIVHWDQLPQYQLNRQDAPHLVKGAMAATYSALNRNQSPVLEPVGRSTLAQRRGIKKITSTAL

[13] = molecular target: Vascular endothelial growth factor receptor 1 (Homo sapiens) (UniProt P17948)
Chain of Vascular endothelial growth factor receptor 1 (Homo sapiens) (P17948 whole entry): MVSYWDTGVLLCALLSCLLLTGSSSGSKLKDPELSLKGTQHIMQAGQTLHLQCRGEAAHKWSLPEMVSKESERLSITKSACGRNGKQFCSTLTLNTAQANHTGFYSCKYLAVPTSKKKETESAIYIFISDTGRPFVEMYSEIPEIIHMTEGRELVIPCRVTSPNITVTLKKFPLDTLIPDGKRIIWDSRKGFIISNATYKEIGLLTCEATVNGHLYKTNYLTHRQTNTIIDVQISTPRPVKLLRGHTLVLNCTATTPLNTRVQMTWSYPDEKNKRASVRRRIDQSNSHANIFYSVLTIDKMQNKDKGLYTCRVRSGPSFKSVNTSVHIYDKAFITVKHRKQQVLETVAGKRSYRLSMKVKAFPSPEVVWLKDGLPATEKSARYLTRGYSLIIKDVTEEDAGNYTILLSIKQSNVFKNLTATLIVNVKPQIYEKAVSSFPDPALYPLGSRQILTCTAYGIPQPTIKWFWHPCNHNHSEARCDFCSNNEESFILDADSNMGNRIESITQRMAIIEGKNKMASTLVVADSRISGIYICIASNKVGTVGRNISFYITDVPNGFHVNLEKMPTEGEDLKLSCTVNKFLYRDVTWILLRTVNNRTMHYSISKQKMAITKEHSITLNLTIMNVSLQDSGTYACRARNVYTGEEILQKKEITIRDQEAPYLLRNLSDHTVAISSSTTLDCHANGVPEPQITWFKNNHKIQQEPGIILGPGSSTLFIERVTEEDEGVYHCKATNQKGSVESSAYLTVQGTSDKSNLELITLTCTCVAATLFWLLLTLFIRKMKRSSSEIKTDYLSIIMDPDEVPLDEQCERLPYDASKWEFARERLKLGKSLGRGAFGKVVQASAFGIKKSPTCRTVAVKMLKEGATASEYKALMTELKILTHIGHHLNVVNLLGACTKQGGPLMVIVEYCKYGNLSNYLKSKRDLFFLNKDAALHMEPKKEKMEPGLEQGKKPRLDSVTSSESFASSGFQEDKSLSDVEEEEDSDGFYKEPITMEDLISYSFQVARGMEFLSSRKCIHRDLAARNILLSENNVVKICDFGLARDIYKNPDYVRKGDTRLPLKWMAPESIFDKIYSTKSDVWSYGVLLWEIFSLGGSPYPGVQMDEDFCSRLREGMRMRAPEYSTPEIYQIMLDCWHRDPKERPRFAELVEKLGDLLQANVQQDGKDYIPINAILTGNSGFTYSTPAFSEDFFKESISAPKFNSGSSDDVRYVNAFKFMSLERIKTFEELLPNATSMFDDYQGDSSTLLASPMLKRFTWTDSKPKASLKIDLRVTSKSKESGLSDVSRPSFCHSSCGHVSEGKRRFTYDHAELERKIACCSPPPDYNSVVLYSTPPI

[14] = molecular target: Serine/threonine-protein kinase D1 (Homo sapiens) (UniProt Q15139)
[15] = molecular target: Serine/threonine-protein kinase tousled-like 1 (Homo sapiens) (UniProt Q9UKI8)
[16] = molecular target: Serine/threonine-protein kinase 10 (Homo sapiens) (UniProt O94804)
[17] = molecular target: T2, MAP kinase-activated protein kinase 5 (Homo sapiens) (UniProt Q8IW41)
T2 sequence (whole entry): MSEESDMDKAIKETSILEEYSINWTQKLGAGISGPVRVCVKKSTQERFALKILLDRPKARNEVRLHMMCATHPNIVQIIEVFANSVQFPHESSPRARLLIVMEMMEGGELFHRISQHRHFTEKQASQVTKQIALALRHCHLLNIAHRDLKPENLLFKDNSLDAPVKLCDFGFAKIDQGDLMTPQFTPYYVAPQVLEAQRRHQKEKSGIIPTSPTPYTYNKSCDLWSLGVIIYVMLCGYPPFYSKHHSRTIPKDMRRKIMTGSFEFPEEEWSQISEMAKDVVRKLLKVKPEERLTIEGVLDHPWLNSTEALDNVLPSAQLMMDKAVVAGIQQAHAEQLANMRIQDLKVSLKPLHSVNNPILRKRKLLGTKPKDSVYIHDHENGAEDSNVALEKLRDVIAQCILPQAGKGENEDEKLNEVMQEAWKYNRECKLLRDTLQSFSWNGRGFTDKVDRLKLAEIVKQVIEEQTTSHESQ

[18] = molecular target: Bone morphogenetic protein receptor type-1A (Homo sapiens) (UniProt P36894)
[19] = molecular target: T3, Megakaryocyte-associated tyrosine-protein kinase (Homo sapiens) (UniProt P42679)
T3 sequence (whole entry): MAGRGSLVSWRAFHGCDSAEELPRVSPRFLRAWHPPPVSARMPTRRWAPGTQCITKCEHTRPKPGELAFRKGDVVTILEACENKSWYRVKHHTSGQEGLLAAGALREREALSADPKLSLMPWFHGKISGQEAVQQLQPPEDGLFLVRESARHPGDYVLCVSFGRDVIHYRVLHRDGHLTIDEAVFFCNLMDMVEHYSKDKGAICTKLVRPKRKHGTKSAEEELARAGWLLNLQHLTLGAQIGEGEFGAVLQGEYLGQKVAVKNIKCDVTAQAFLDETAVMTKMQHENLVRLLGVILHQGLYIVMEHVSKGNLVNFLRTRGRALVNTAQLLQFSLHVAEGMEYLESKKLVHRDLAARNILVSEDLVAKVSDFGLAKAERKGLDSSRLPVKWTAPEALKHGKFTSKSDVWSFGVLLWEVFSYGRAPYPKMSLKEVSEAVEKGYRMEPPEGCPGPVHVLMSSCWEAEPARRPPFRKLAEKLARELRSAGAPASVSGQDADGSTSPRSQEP

Measured: residual activity

Chain of Serine/threonine-protein kinase N2 (Homo sapiens) (Q16513 whole entry, looked up): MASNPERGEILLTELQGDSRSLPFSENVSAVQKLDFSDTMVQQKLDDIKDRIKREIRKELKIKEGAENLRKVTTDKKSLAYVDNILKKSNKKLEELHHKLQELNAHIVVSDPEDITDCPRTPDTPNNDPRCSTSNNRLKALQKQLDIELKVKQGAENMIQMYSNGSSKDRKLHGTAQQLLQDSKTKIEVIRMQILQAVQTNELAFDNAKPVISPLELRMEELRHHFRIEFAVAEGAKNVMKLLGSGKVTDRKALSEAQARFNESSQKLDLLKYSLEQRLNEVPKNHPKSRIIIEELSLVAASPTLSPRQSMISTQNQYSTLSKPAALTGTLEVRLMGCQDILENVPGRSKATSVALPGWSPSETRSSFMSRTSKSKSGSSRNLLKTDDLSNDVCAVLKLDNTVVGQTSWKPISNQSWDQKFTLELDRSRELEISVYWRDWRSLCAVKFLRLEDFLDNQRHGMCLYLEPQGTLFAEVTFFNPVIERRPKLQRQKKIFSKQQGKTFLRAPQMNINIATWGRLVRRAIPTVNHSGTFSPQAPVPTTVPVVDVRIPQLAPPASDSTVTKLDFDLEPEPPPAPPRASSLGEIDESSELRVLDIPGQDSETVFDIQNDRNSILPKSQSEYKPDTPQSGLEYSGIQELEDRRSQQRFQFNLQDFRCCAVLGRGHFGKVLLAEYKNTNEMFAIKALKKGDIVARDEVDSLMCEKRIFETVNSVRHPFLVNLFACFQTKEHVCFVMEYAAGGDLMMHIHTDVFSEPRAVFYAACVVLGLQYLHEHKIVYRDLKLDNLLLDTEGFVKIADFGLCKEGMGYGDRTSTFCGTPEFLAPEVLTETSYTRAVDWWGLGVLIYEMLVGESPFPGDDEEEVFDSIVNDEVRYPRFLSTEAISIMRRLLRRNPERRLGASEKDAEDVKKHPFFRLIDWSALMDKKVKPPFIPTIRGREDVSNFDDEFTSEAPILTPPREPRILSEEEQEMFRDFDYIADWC

CN(C)C(=O)Cn1cc(-c2nc(C3(c4ccc(-c5cnc(N)nc5)cc4)CC3)no2)cn1 [BI 0153]
inactive: [1] 95% | [2] 77% | [3] 99% | [4] 89% | [5] 99% | [6] 100% | [7] 100% | [8] 82% | [9] 87% | [10] 100% | [11] 87% | [12] 92% | [13] 100% | [14] 100% | [15] 100% | [16] 100% | [17] 92% | [18] 87% | [19] 77%

CN(C)C(=O)Cn1cc(-c2nc([C@@](C)(c3ccc(-c4cnc(N)nc4)cc3)C3CC3)no2)cn1 [BI 665915]
inactive: [1] 90% | [2] 100% | [3] 100% | [4] 100% | [5] 97% | [6] 100% | [7] 85% | [8] 77% | [9] 89% | [10] 96% | [11] 94% | [12] 83% | [13] 100% | [14] 100% | [15] 100% | [16] 89% | [17] 94% | [18] 100% | [19] 77%

Source: ChEMBL document CHEMBL4507276 (2021)
